“Also recorded” adds a separate entry of the source. Values belong to the molecule of their own block, whether it stands above or below them.
Legend:
[1] = Plasma and tumor pharmacokinetics of OKI-005 in HCT-116 tumor-bearing mice; type: in vivo, BALB/c nude mice
MDA-MB-231 cell line = assay: SRB proliferation assay; type: cell-based, human; conditions: read-out: IC50 proliferation; MDA-MB-231, SRB, 72 hours
CAL-120 cell line = assay: SRB proliferation assay; type: cell-based, human; conditions: read-out: IC50 proliferation; CAL-120, SRB, 72 hours
HCT-116 xenografts = assay: HCT-116 xenograft efficacy study; type: in vivo; conditions: for TGI compared to vehicle control: HCT-116 xenograft
CAL-120 cells = assay: Cell cycle analysis; type: cell-based, human; conditions: CAL-120, 24 hours, 0-200 nM
[2] = tested on: acetyl-histone H3 and acetyl H3K9; assay: HCT-116 xenograft pharmacodynamics; type: in vivo, BALB/c nude mice
[3] = tested on: luciferase-labeled MDA-MB-231 cells; assay: MDA-MB-231 luciferase-labeled metastasis model; type: in vivo, BALB/c nude mice; conditions: OKI-005 10 mg/kg IP 3 times a week for 30 days
[4] = tested on: sensitive and resistant TNBC cell lines; assay: Immunoblotting of protein acetylation and p21; type: cell-based, human; conditions: 24 hours, immunoblot
HCC1395 cell line = assay: SRB proliferation assay; type: cell-based, human; conditions: read-out: IC50 proliferation, 72 hours
Hs578T cell line = assay: SRB proliferation assay; type: cell-based, human; conditions: read-out: IC50 proliferation, 72 hours
HDAC-4 = conditions: read-out: IC50 HDAC-4; cell-free biochemical assay, previously published; cited from earlier work
HDAC-2 = conditions: read-out: IC50 HDAC-2; cell-free biochemical assay, previously published; cited from earlier work
[5] = Plasma persistence of OKI-006 across preclinical models; type: in vivo; conditions: depending on the dose and model (mouse vs. rat vs. dog)
HDAC-1 = conditions: read-out: IC50 HDAC-1; cell-free biochemical assay, previously published; cited from earlier work
HDAC-3 = conditions: read-out: IC50 HDAC-3; cell-free biochemical assay, previously published; cited from earlier work
HDAC-9 = conditions: read-out: IC50 HDAC-9; cell-free biochemical assay, previously published; cited from earlier work
HDAC-8 = conditions: read-out: IC50 HDAC-8; cell-free biochemical assay, previously published; cited from earlier work
HDAC-6 = conditions: read-out: IC50 HDAC-6; cell-free biochemical assay, previously published; cited from earlier work
HDAC-7 = conditions: read-out: IC50 HDAC-7; cell-free biochemical assay, previously published; cited from earlier work
HDAC-5 = conditions: read-out: IC50 HDAC-5; cell-free biochemical assay, previously published; cited from earlier work
acetylated histone H3 = assay: MDA-MB-231 xenograft pharmacodynamics; type: in vivo, nude mice; conditions: OKI-179 40, 60 or 80 mg/kg PO daily x 3 or 10 days
MDA-MB-231 xenograft [6] = assay: MDA-MB-231 xenograft efficacy study; type: in vivo, BALB/c nude mice; conditions: OKI-179 40-80 mg/kg PO daily, 120 mg PO every other day
MDA-MB-231 xenograft [7] = conditions: addition of OKI-179 to nivolumab; cited from earlier work
advanced solid tumors = conditions: continuous dosing, patients with advanced solid tumors; cited from earlier work
MCF-7 xenograft = assay: MCF-7 xenograft, OKI-179 in combination with tamoxifen; conditions: OKI-179 60 mg/kg PO 5 days on 2 days off, tamoxifen 25 mg/kg SQ 3 times a week

SMILES: CCCCCCCC(=O)SCC/C=C/[C@@H]1CC(=O)NCc2nc(cs2)C(=O)NC(C)(C)C(=O)N[C@@H](C(C)C)C(=O)O1 [OKI-005]
- half-life in plasma ([1]; PO dosing of OKI-005, metabolite OKI-006 measured, HCT-116 tumor-bearing mice): < 2 h
- IC50 (MDA-MB-231 cell line): < 100 nM
- IC50 (CAL-120 cell line): < 100 nM
- TGI compared to vehicle control (HCT-116 xenografts; OKI-005 30 mg/kg, P = 0.025): 28.1%
- body weight / tolerability (HCT-116 xenografts; OKI-005 100 mg/kg PO daily, mice, 100 mg/kg): weight loss related to treatment requiring dose reduction; also recorded: dose-limiting treatment-related toxicity
- TGI compared to vehicle control (HCT-116 xenografts; OKI-005 100 mg/kg, P < 0.001): 75.6%
- cell cycle effect (G1 and S phase fraction) (CAL-120 cells): trend towards an increase in G1 and a decrease in the cell fraction in S phase
- acetyl-histone H3 and acetyl H3K9 in tumor ([2]; 1 hour post-dose, HCT-116 xenograft): dose-dependent increase
- time of highest acetyl-Histone H3 and acetyl H3K9 levels post-treatment ([2]; OKI-005 100 mg/kg): 4 h
- time of return of acetyl-Histone H3 and acetyl H3K9 to baseline post-dose ([2]; OKI-005 100 mg/kg): 24 h
- primary tumor growth and metastasis (number of thoracic metastasis) [3]: statistically significant inhibition
- acetylated histone-H3 and p21 ([4]; 0-500 nM): concentration-dependent increase
- acetylated α-tubulin ([4]; highest dose levels): small increase
- IC50 (HCC1395 cell line): > 500 nM
- IC50 (Hs578T cell line): > 500 nM

- persistence of plasma concentrations > 100 nM following a single dose [5]: 4 to 12 h
SMILES: CC(C)[C@@H]1NC(=O)C(C)(C)NC(=O)c2csc(n2)CNC(=O)C[C@@H](/C=C/CCS)OC1=O [OKI-006]
- tumor concentrations versus plasma levels ([1]; OKI-006 after single dose of OKI-005 PO or IP): exceeded plasma levels at all time points
- IC50 (HDAC-4): > 1000 nM
- IC50 (HDAC-2): 2.4 nM
- IC50 (HDAC-1): 1.2 nM
- IC50 (HDAC-3): 2 nM
- IC50 (HDAC-9): > 1000 nM
- IC50 (HDAC-8): 47 nM
- IC50 (HDAC-6): 47 nM
- IC50 (HDAC-7): > 1000 nM
- IC50 (HDAC-5): > 1000 nM

SMILES: CC(C)[C@H](N)C(=O)SCC/C=C/[C@@H]1CC(=O)NCc2nc(cs2)C(=O)NC(C)(C)C(=O)N[C@@H](C(C)C)C(=O)O1 [OKI-179]
- acetylated histone H3 in tumor (acetylated histone H3): increase in acetylated histone H3
- tumor growth inhibition (MDA-MB-231 xenograft [6]): statistically significant tumor growth inhibition at higher doses
- body weight / tolerability (HCT-116 xenografts; OKI-179 100 mg/kg oral daily, animals): weight loss
- tumor growth at day 24 (HCT-116 xenografts; OKI-179 40-80 mg/kg PO daily and 120 mg PO every other day, all doses and schedules): statistically significant decreased tumor growth
- tumor growth inhibition and T-cell activation (MDA-MB-231 xenograft [7]): improved tumor growth inhibition and increased T-cell activation
- dose-limiting toxicity (advanced solid tumors): dose-limiting thrombocytopenia
- tumor growth inhibition (MCF-7 xenograft): active

SMILES: CC/C(=C(\c1ccccc1)c1ccc(OCCN(C)C)cc1)c1ccccc1 [tamoxifen, reference compound]
- tumor growth inhibition (MCF-7 xenograft): active

Reference: publication PMC9600708 (Molecular cancer therapeutics, 2022)
